Patent publication US20040147459A1, “Method and composition for maintaining urinary tract health in the face of infections” (priority 2002, published 2004)

How the values were obtained:
[1] = tested on: E. coli in the urinary tract; experiment: doctor-run trials of mannose dosages in urinary tract infections; type: in vivo; conditions: 2 g three times a day for acute infections; maintenance 1 g one to two times per day
Excerpt: Because it is difficult for many people to remember a medication that must be taken this often, it is herein disclosed to change this model, as disclosed in the table in FIG. 2. For acute infections, the method is to give a 2-gram (1 teaspoon) dose of mannose three times a day with meals. The maintenance dosage is one-half teaspoon (1 gram) one to two times per day. Children's dosages are half of the adult dosage. For women who experience UTIs after sexual relations, one teaspoon is used an hour prior to intimate relations and an additional one teaspoon immediately following. This regimen provides a quantity of mannose sufficient to remove a majority of E. coli in the urinary tract, while improving the ease of use and compliance.

E. coli = conditions: cited from earlier work

SMILES | effectiveness of the dosages in doctor-run trials [1] | effectiveness in binding to E. coli and inhibiting its attachment, relative to fructose (E. coli; compared with fructose) | binding to E. coli (E. coli; fructose contained in cranberry juice)
O=C[C@@H](O)[C@@H](O)[C@H](O)[C@H](O)CO [D-mannose] | effective | ten times more effectively | 
O=C(CO)[C@@H](O)[C@H](O)[C@H](O)CO [fructose, reference compound] |  |  | can also bind to E. coli
